Measurements published in patent US20100261162A1, “Methods of assaying for telomerase activity and compositions related to same” (priority 2005, published 2010).

Target: T1, telomerase (HEK293T cell lysates) (Homo sapiens, UniProt O14746)
T1 construct: effect of TBT oligonucleotide length in HEK293T cell lysates; endogenous in cells; host or cells: HEK293T cell lysate (CHAPS lysis)
Test: TBT assay, effect of telomerase oligonucleotide template length
Type: biochemical
Conditions: TBT luminescence, short (0.5 repeat), 2.5 repeat and 3.5 repeat oligonucleotides compared
Excerpt: FIG. 16 illustrates a graphical representation showing the effect of TBT oligonucleotide length in HEK293T cell lysates according to an embodiment of the present invention.
Design of the telomerase-specific oligonucleotide template attached to the magnetic bead is critical for maximizing sensitivity of the TBT assay. The minimal recognition DNA sequence for base-pairing between the RNA component of telomerase and the telomere end is 9 bases—TAGGGTTAG, however, multiple repeats of this sequence more accurately depict the nature of chromosome telomere ends and the scanning nature of enzymes used to achieve accurate base-pair recognition. Telomerase templates include those ranging from 1.5-3 hexameric repeats.
Three forms of the oligonucleotide were tested. A short version containing a partial (0.5) repeat, a slightly longer version containing 2.5 repeats, and a longer version with 3.5 repeats. […] This increased dynamic range is likely to translate into increased sensitivity of the assay.

T1 sequence (O14746 whole entry): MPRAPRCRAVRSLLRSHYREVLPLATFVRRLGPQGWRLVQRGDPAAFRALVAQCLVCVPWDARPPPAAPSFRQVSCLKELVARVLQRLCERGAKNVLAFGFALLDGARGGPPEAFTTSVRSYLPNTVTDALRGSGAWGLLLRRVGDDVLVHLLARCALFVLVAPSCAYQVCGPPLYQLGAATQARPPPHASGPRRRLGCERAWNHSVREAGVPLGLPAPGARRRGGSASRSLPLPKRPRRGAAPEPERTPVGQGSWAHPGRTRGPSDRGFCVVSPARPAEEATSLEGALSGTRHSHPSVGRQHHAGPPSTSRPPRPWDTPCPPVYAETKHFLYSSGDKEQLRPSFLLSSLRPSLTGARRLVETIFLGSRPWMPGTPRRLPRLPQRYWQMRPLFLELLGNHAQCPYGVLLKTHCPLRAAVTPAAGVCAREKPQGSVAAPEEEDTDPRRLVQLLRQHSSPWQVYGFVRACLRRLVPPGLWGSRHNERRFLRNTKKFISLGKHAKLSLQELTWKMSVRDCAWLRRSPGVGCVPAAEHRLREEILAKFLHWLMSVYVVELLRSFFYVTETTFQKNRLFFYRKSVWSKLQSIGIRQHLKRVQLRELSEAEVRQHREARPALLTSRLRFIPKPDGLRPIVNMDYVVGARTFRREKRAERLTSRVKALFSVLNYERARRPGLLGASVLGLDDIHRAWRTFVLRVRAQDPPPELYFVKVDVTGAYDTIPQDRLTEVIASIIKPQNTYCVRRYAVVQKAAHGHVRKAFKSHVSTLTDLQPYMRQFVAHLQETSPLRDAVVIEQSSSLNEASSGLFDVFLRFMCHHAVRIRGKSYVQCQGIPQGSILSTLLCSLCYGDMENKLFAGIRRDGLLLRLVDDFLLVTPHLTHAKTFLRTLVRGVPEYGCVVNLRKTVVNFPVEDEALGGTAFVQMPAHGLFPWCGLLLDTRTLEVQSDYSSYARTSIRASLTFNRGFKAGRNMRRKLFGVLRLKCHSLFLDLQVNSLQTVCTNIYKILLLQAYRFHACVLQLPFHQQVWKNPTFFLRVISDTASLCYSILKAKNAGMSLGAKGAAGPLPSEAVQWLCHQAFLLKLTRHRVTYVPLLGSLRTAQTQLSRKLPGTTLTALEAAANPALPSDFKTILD

In the case of “longer version: Long human telomerase recognition nucleotide sequence, 5′ thiol-linked, 3.5 repeats, attached to magnetic bead (DNA TTTTTTAATCCGTCGAGCAGAGTTAGGGTTAGGGTTAGGGTTAGGGTTAG; 5' thiol linker, attached to magnetic bead, further chemistry not given here)”, the “absolute signal relative to the background signal (no telomerase extract)” value is reported as “better absolute signal relative to the background signal”.
